pEC50: −log10 of the molar value. Where only a bound is given, the exact number is not on record here.

In the experiment the target is T1, KATP channels (Homo sapiens, UniProt O60706+Q14654).
T1 construct: TE671 human medulloblastoma cells were obtained from ATCC; host or cells: TE671 human medulloblastoma cells
T1 sequence (O60706 1-1549 isoform O60706-2): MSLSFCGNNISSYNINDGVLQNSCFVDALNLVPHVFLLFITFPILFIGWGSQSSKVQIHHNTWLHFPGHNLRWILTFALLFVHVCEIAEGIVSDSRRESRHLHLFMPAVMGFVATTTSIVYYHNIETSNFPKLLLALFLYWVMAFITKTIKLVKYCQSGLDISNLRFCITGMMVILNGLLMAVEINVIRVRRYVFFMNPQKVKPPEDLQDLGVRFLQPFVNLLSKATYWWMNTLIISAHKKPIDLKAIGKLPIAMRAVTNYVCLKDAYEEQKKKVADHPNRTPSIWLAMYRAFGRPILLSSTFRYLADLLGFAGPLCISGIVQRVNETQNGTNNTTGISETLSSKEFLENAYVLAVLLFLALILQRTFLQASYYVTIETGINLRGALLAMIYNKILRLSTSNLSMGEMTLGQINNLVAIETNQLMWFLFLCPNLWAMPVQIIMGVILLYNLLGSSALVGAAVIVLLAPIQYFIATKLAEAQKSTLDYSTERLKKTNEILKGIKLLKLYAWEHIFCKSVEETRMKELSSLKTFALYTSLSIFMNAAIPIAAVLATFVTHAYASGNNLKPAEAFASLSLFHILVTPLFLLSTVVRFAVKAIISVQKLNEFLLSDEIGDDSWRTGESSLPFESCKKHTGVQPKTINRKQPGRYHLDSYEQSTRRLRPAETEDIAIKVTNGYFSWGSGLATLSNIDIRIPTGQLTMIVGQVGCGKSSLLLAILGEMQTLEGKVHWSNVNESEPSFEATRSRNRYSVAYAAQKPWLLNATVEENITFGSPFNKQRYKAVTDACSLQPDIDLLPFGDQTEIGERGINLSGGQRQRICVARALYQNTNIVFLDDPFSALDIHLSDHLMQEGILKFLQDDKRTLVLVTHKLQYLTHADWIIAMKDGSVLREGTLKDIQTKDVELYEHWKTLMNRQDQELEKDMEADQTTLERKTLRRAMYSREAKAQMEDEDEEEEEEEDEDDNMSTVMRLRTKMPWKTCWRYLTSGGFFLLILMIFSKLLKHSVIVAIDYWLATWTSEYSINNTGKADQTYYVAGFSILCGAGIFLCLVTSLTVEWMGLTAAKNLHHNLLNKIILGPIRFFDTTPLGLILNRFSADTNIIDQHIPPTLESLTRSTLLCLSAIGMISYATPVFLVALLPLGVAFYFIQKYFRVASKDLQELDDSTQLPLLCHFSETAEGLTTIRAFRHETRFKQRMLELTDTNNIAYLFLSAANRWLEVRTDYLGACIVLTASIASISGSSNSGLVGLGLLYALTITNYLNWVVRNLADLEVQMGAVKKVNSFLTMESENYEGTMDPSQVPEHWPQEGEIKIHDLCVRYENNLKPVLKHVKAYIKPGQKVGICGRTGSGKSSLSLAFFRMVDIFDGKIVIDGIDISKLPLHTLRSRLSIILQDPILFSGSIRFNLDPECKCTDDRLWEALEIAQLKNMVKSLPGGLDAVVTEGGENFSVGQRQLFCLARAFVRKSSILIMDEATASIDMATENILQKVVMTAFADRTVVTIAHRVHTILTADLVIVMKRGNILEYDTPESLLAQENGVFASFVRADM
T1 sequence (Q14654 whole entry): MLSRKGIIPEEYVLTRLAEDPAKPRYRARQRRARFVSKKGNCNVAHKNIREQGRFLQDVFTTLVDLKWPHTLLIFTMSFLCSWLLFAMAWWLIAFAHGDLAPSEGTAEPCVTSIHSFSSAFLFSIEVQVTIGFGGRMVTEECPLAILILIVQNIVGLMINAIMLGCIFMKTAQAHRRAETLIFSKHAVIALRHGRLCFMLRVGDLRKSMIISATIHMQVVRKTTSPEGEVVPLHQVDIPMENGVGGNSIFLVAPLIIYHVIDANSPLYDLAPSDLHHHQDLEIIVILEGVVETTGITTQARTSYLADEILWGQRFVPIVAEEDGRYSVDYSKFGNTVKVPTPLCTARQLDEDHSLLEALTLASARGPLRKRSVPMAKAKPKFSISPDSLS
The experiment in a line: Potassium Channel Assay (FLIPR membrane potential, TE671 cells). The experiment is classed as cell-based. The note with it: TE671 human medulloblastoma cells, Membrane Potential Assay Dye, room temperature, hyperpolarization from KATP channel opening. As for the experimental part:
TE671 human medulloblastoma cells were obtained from ATCC and grown in Dulbecco's modified Eagle's medium (DMEM) supplemented with 10% fetal bovine serum, 100 U/ml penicillin and 100 U/ml streptomycine.
The day before testing, the cells were plated in black 96-well plates at 50K/well. On the day of testing, the growth media was removed, then 100 μl of FLIPR buffer (20 mM HEPES, 120 mM NaCl, 2 mM KCl, 2 mM CaCl2, 1 mM MgCl2, 5 mM Glucose) and 100 μl of Membrane Potential Assay Dye (Molecular Devices) dissolved in FLIPR buffer were added to each well. The cells were incubated at room temperature for 15 to 30 min.
The effect of test compounds on KATP channels were evaluated on a fluorometric imaging plate reader (FLIPR, Molecular Devices) at room temperature. After a baseline period, 50 μl of 5× stock solution of test compound prepared in FLIPR buffer was added and fluorescent change was monitored for 3 minutes. After this reading, glyburide, a KATP channel blocker, was added to a final concentration of 5 μM to check the specificity of the test compound as a KATP channel openers. Hyperpolarization resulting from KATP channel opening was observed as a decrease in fluorescent intensity.
Representative compounds of the present invention were tested according to the procedure described above, with results as listed in Table 7, below.
`CC1(C)Oc2ccc(C#N)cc2[C@@H](Nc2nc3cc(Cl)ccc3s2)[C@@H]1O` (racemic) [Compound 1, 4-(5-Chloro-benzothiazol-2-ylamino)-3-hydroxy-2,2-dimethyl-chroman-6-carbonitrile] gave a pEC50 of 4.84.
In turn, `CC1(C)Oc2ccc(C#N)cc2[C@@H](Nc2nc3cc(Cl)ccc3o2)[C@@H]1O` (racemic) [Compound 2, 4-(5-Chloro-benzooxazol-2-ylamino)-3-hydroxy-2,2-dimethyl-chroman-6-carbonitrile] gave a pEC50 of 4.78.
Next, `Cc1cccc2c(=O)n([C@@H]3c4cc(C#N)ccc4OC(C)(C)[C@H]3O)oc12` [Compound 32, 3S-Hydroxy-2,2-dimethyl-4R-(7-methyl-3-oxo-3H-benzo[d]isoxazol-2-yl)-chroman-6-carbonitrile]: 4.65; `N#Cc1ccc2c(c1)[C@@H](Oc1noc3cc(Cl)ccc13)[C@H](O)C1(CCS(=O)(=O)CC1)O2` [Compound 200, (3S,4R)-4-(6-Chloro-benzo[d]isoxazol-3-yloxy)-2,2-(tetrahydro-4-sulfonylpyranyl)-3-hydroxy-chroman-6-carbonitrile]: 4.53.
As to `CC1(C)Oc2ccc(C#N)cc2[C@@H](Nc2nc(=O)c3cc(Cl)ccc3[nH]2)[C@@H]1O` [Compound 64, (3S,4R)-4-(6-Chloro-4-oxo-1,4-dihydro-quinazolin-2-ylamino)-3-hydroxy-2,2-dimethyl-chroman-6-carbonitrile], the pEC50 was 5.04.
`CC1(C)Oc2ccc(Cl)cc2[C@@H](n2ccnc2-c2ccccc2)[C@@H]1O` (racemic) [Compound 49, 6-Chloro-2,2-dimethyl-4-(2-phenyl-imidazol-1-yl)-chroman-3-ol]: the pEC50 is less than 4.52.
On to `CC1(C)Oc2cc(Cl)c(Cl)cc2[C@@H](n2oc3cc(Cl)ccc3c2=O)[C@@H]1O` [Compound 94, 6-Chloro-2-(6,7-dichloro-3S-hydroxy-2,2-dimethyl-chroman-4-yl)-R-benzo[d]isoxazol-3-one], for which the pEC50 was 4.99.
Turning to `CC1(C)Oc2ccc(S(=O)(=O)c3ccccc3)cc2[C@@H](n2oc3cc(Cl)ccc3c2=O)[C@@H]1O` [Compound 78, 2-(6-Benzenesulfonyl-3S-hydroxy-2,2-dimethyl-chroman-4-yl)-6-chloro-4R-benzo[d]isoxazol-3-one], the pEC50 is 7.00.
Next, `CCN(CC)S(=O)(=O)c1ccc2c(c1)[C@@H](Nc1noc3ccc(Cl)cc13)[C@H](O)C(C)(C)O2` (racemic) [Compound 80, 4R-(5-Chloro-benzo[d]isoxazol-3-ylamino)-3S-hydroxy-2,2-dimethyl-chroman-6-sulfonic acid diethylamide]: less than 4.52.
For `CC1(C)Oc2ccc(Cl)cc2[C@@H](OC2=NN(c3ccccc3)CC2)[C@@H]1O` (racemic) [Compound 59, 6-Chloro-2,2-dimethyl-4-(1-phenyl-4,5-dihydro-1H-pyrazol-3-yloxy)-chroman-3-ol], the pEC50 is 4.78.
Under `CC1(C)Oc2ccncc2[C@@H](n2ccnc2-c2ccc(Cl)cc2)[C@@H]1O` (racemic) [Compound 111, 4-[2-(4-Chloro-phenyl)-imidazol-1-yl]-2,2-dimethyl-3,4-dihydro-2H-pyrano[3,2-c]pyridin-3-ol] stands less than 4.52; under `CC1(C)Oc2ccc(C#N)cc2[C@@H](NP(=O)(c2ccccc2)c2ccccc2)[C@@H]1O` [Compound 65], less than 4.52; under `CC1(C)Oc2ccncc2[C@@H](n2nccc2-c2ccc(Cl)cc2)[C@@H]1O` (racemic) [Compound 108, 4-[5-(4-Chloro-phenyl)-pyrazol-1-yl]-2,2-dimethyl-3,4-dihydro-2H-pyrano[3,2-c]pyridin-3-ol], 5.36.
`CC1(C)Oc2ccc(C(=O)c3ccccc3)cc2[C@@H](Nc2noc3ccc(Cl)cc23)[C@@H]1O` [Compound 92, [4R-(5-Chloro-benzo[d]isoxazol-3-ylamino)-3S-hydroxy-2,2-dimethyl-chroman-6-yl]-phenyl-methanone] showed a pEC50 of 4.69.
On to `CC1(C)Oc2ccc(C#N)cc2[C@@H](NS(=O)(=O)c2cccc(Cl)c2)[C@@H]1O` [Compound 66, (3S,4R)-3-Chloro-N-(6-cyano-3-hydroxy-2,2-dimethyl-chroman-4-yl)-benzenesulfonamide], for which the pEC50 was 5.81.
The molecule `CCN(CC)S(=O)(=O)c1ccc2c(c1)[C@@H](Oc1noc3cc(Cl)ccc13)[C@H](O)C(C)(C)O2` [Compound 79, 4R-(6-Chloro-benzo[d]isoxazol-3-yloxy)-3S-hydroxy-2,2-dimethyl-chroman-6-sulfonic acid diethylamide] gave a pEC50 of less than 4.52.
`CC1(C)Oc2ccncc2[C@@H](n2nc(-c3ccc(Cl)cc3)ccc2=O)[C@@H]1O` (racemic) [Compound 112, 6-(4-Chloro-phenyl)-2-(3-hydroxy-2,2-dimethyl-3,4-dihydro-2H-pyrano[3,2-c]pyridin-4-yl)-2H-pyridazin-3-one] had a pEC50 of 4.53.
With `CCOc1ccc2sc(N[C@@H]3c4cc(C#N)ccc4OC(C)(C)[C@H]3O)nc2c1` (racemic) [Compound 4, 4-(5-Ethoxy-benzothiazol-2-ylamino)-3-hydroxy-2,2-dimethyl-chroman-6-carbonitrile], the pEC50 is 5.59.
Under `CC1(C)Oc2ccc(C#N)cc2[C@@H](n2nc(N)c3c(F)cccc32)[C@@H]1O` [Compound 36, 4R-(3-Amino-4-fluoro-indazol-1-yl)-3S-hydroxy-2,2-dimethyl-chroman-6-carbonitrile] stands 4.79.
The molecule `CCN(CC)S(=O)(=O)c1ccc2c(c1)[C@@H](Nc1noc3cc(Cl)ccc13)[C@H](O)C(C)(C)O2` [Compound 81, 4R-(6-Chloro-benzo[d]isoxazol-3-ylamino)-3S-hydroxy-2,2-dimethyl-chroman-6-sulfonic acid diethylamide] gave a negative logarithm of the EC50 (pEC50) of 4.87.
Next, `CC1(C)Oc2ccc(C#N)cc2[C@@H](Sc2nccc(C(F)(F)F)n2)[C@@H]1O` [Compound 43, 3S-Hydroxy-2,2-dimethyl-4R-(4-trifluoromethyl-pyrimidin-2-ylsulfanyl)-chroman-6-carbonitrile]: less than 4.52; `CC1(C)Oc2ccc(C#N)cc2[C@@H](N2CCN(c3ccc(F)cc3)CC2)[C@@H]1O` (racemic) [Compound 48, 4-[4-(4-Fluoro-phenyl)-piperazin-1-yl]-3-hydroxy-2,2-dimethyl-chroman-6-carbonitrile]: 5.20.
As for `CC1(C)Oc2ccc(C#N)cc2[C@@H](S(=O)(=O)c2ncc[nH]2)C1O` (stereo in doubt) [Compound 71, (3S,4R)-3-Hydroxy-4-(1H-imidazole-2-sulfonyl)-2,2-dimethyl-chroman-6-carbonitrile], the pEC50 was less than 4.52.
As for `CC1(C)Oc2ccc(S(=O)(=O)N3CCCCC3)cc2[C@@H](Nc2noc3ccc(Cl)cc23)[C@@H]1O` [Compound 88, 4R-(5-Chloro-benzo[d]isoxazol-3-ylamino)-2,2-dimethyl-6-(piperidine-1-sulfonyl)-chroman-3S-ol], the pEC50 was less than 4.52.
`CC1(C)Oc2ccc(C#N)cc2[C@@H](Oc2ccn(-c3ccccc3)n2)[C@@H]1O` (racemic) [Compound 58, 3-Hydroxy-2,2-dimethyl-4-(1-phenyl-1H-pyrazol-3-yloxy)-chroman-6-carbonitrile] showed a pEC50 of 5.58.
Turning to `CC1(C)Oc2ccc(C#N)cc2[C@@H](n2ccnc2-c2ccccc2)[C@@H]1O` (racemic) [Compound 47, 3-Hydroxy-2,2-dimethyl-4-(2-phenyl-imidazol-1-yl)-chroman-6-carbonitrile], the pEC50 was less than 4.52.
Turning to `COc1ccc(S(=O)(=O)c2ccc3c(c2)[C@@H](Nc2noc4ccc(Cl)cc24)[C@H](O)C(C)(C)O3)cc1` [Compound 104, 4R-(5-Chloro-benzo[d]isoxazol-3-ylamino)-6-(4-methoxy-benzenesulfonyl)-2,2-dimethyl-chroman-3S-ol], the pEC50 was 4.59.
Under `CC1(C)Oc2ccc(C#N)cc2[C@@H](Nc2nc(=O)c3ccccc3[nH]2)[C@@H]1O` (racemic) [Compound 118, 3-Hydroxy-2,2-dimethyl-4-(4-oxo-1,4-dihydro-quinazolin-2-ylamino)-chroman-6-carbonitrile] stands 5.11.
`CC1(C)C=C(n2c(N)nc3cc(Cl)ccc32)c2cc(C#N)ccc2O1` [Compound 45, 4-(2-Amino-5-chloro-benzoimidazol-1-yl)-2,2-dimethyl-2H-chromene-6-carbonitrile]: the pEC50 is less than 4.52.
Next, `CC1(C)Oc2ccncc2[C@@H](n2cncc2-c2ccc(Cl)cc2)[C@@H]1O` (racemic) [Compound 113, 4-[5-(4-Chloro-phenyl)-imidazol-1-yl]-2,2-dimethyl-3,4-dihydro-2H-pyrano[3,2-c]pyridin-3-ol]: 4.86.
For the molecule `CC1(C)Oc2ccc(C#N)cc2[C@@H](Oc2noc3ccc(F)cc23)[C@@H]1O` [Compound 70, (3S,4R)-4-(5-Fluoro-benzo[d]isoxazol-3-yloxy)-3-hydroxy-2,2-dimethyl-chroman-6-carbonitrile], the pEC50 was 4.71.
As to `CC1(C)Oc2ccc(C#N)cc2[C@@H](SC2=NCCO2)[C@@H]1O` (stereo in doubt) [Compound 68, 4-(4,5-Dihydro-oxazol-2-ylsulfanyl)-3-hydroxy-2,2-dimethyl-chroman-6-carbonitrile], the pEC50 was 5.46.

A word on the pEC50: it is −log10 of the EC50, conventionally taken in molar units. A low value points to a large EC50.

The record behind these values is patent publication US7812183B2, “Benzopyran derivatives as potassium channel openers” (Janssen Pharmaceutica NV, priority 2005, dated 2010).
